The record followed here is patent US12202840B2, “Compounds for the treatment or alleviation of disorders associated with Tau aggregates” (AC Immune SA, priority 2018, dated 2025).

Holding throughout (type): in vivo
The subject of test [1] is rTg4510 mice. Description: Morris Water Maze behavioral test, study of Example 1 and Example 12. The conditions noted are these: once daily by gavage 12.5 weeks, Example 1 at 7 and 20 mg/kg, Example 12 at 20 mg/kg, vs vehicle treated rTg4510, FIG. 1. The source says:
(§1) Double transgenic rTg4510 mice are an aggressive Tauopathy model expressing the full-length human Tau carrying the P301L mutation (Tau4R0N-P301L) under the control of the tetracycline-inducible CaMKII promoter (Ramsden et al., J. Neurosci., 2005⋅25(46):10637-10647). Wild-type animals and single transgenic mice expressing only the tetracycline-controlled transactivator (tTA) were used as genotype controls. The study comprised 6 treatment groups (n=20 mice/group) with the following group distribution (see Table 5). Compounds or vehicle control were administered once daily by gavage for 12.5 weeks starting at the age of 5.5 weeks. The Morris Water Maze (MWM) behavioral test was performed after 12.5 weeks of treatment over 5 consecutive days. During MWM testing daily dosing was continued. Behavioral testing (MWM) was performed only on female mice (around n=11 female/group). […]
The MWM was performed in a circular tank, measuring 48″ in diameter. […] Trials were video recorded and analyzed by a computer program (WaterMaze; Actimetrics, Wilmette, Ill.). […] Percent time spent in each quadrant (target, left and right adjacent, and opposite) were calculated for probe trials. […] Data were analyzed by 2-way ANOVA followed by post-hoc comparisons and shown statistics refers to differences compared to vehicle treated rTg4510 mice.

The subject of a further test is CD68 positive microglia. Description: CD68 histology (neuroinflammation), study of Example 1 and Example 12. The conditions noted are these: rTg4510 mice, once daily by gavage 12.5 weeks; Example 1 at 7 and 20 mg/kg, Example 12 at 20 mg/kg; vs vehicle treated rTg4510; FIG. 3. The source says:
Double transgenic rTg4510 mice are an aggressive Tauopathy model expressing the full-length human Tau carrying the P301L mutation (Tau4R0N-P301L) under the control of the tetracycline-inducible CaMKII promoter (Ramsden et al., J. Neurosci., 2005⋅25(46):10637-10647). Wild-type animals and single transgenic mice expressing only the tetracycline-controlled transactivator (tTA) were used as genotype controls. The study comprised 6 treatment groups (n=20 mice/group) with the following group distribution (see Table 5). Compounds or vehicle control were administered once daily by gavage for 12.5 weeks starting at the age of 5.5 weeks. The Morris Water Maze (MWM) behavioral test was performed after 12.5 weeks of treatment over 5 consecutive days. During MWM testing daily dosing was continued. Behavioral testing (MWM) was performed only on female mice (around n=11 female/group). Measurements of cortical atrophy and histology for misfolded Tau (MC1) and CD68 were performed on 7 animals/group excluding wild-type animals.
A systematic random set of sections for five sagittal sections per animal (a total of 175 sections) was used for CD68 histological staining. […] Data were analyzed by 1-way ANOVA followed by post-hoc comparisons and shown statistics refers to differences compared to vehicle treated rTg4510 mice.

For test [2], the system named is rTg4510 mice. As to the kind of experiment: Cortex size (cortical atrophy), study of Example 1 and Example 12. Conditions: once daily by gavage 12.5 weeks, Example 1 at 7 and 20 mg/kg, Example 12 at 20 mg/kg, vs vehicle treated rTg4510, FIG. 2A.
Source text: as §1, with “weeks.” for “weeks. The Morris Water Maze (MWM) behavioral test was performed after 12.5 weeks of treatment over 5 consecutive days. During MWM testing daily dosing was continued. Behavioral testing (MWM) was performed only on female mice (around n=11 female/group).”
(§2) After behavioral testing, mice were deeply anesthetized by standard injectable anesthesia and transcardially perfused with cold PBS. […] Sections from 7 mice per group, excluding wild-type animals, were collected from around 10 mediolateral levels starting 0.2 mm lateral from midline, mounted on slides, and used to quantify the cortex size. […] To reduce auto-fluorescence of the tissue, sections were incubated with a solution of 0.1% Sudan Black (Sigma) in 70% ethanol for 15 minutes at room temperature, then washed four times 5 minutes in PBS, and mounted using ProLong Gold Antifade reagent (Invitrogen). Staining was visualized on the Nikon Eclipse Ti microscope, imaged using Nikon DS-Fi2 camera, and quantified using the NIS-Element AR4.13.1 software. […]

The target in a further test is T1, misfolded Tau (MC1) (Homo sapiens, UniProt P10636, P618L).
T1 construct: expressing the full-length human Tau carrying the P301L mutation (Tau4R0N-P301L); from tissue; host or cells: brain (cortex) of double transgenic rTg4510 mice
T1 sequence (P10636 1-383 isoform P10636-6 P243L): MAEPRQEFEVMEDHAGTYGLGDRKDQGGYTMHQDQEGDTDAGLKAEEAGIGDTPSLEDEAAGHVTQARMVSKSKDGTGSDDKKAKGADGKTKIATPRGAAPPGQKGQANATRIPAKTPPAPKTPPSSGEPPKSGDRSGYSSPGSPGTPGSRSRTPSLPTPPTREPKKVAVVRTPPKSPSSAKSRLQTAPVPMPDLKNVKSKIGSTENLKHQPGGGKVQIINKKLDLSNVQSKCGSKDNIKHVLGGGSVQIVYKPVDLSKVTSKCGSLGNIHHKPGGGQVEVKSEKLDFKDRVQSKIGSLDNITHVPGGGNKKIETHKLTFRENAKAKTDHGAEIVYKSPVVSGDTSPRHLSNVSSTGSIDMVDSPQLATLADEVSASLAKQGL
As to the kind of experiment: Misfolded Tau by MC1 histology, study of Example 1 and Example 12. Conditions: rTg4510 mice, once daily by gavage 12.5 weeks; Example 1 at 7 and 20 mg/kg, Example 12 at 20 mg/kg; vs vehicle treated rTg4510; FIG. 2B.
Source text: as §1, with “weeks.” for “weeks. The Morris Water Maze (MWM) behavioral test was performed after 12.5 weeks of treatment over 5 consecutive days. During MWM testing daily dosing was continued. Behavioral testing (MWM) was performed only on female mice (around n=11 female/group).”
as §2

As for `CC(C)N1CCc2c(c3ccc(Nc4ccc5nc(N6CCOCC6)sc5c4)nc3n2C)C1` [Example 1], the “percentage of time spent in the target quadrant (MWM probe trial)” value in the test on rTg4510 mice [1] is on record as “dose-dependent increase”. The CD68 positive microglia entry in the test on CD68 positive microglia is on record as “decrease”. For the same compound, in the test on rTg4510 mice [2], the cortex size entry was “dose-dependent increase”. The “misfolded Tau (MC1 histology)” value on misfolded Tau (MC1) is on record as “dose-dependent decrease”.

Take `CN(C)[C@@H]1CCc2c(c3ccc(Nc4ccc5nc(N6CCOCC6)sc5c4)nc3n2C)C1` [Example 12]: in the test on rTg4510 mice [1], the “percentage of time spent in the target quadrant (MWM probe trial)” value is recorded as “significant increase”. The CD68 positive microglia entry in the test on CD68 positive microglia is “significant decrease”. Also, the cortex size result in the test on rTg4510 mice [2] is “significant increase”. Moreover, the “misfolded Tau (MC1 histology)” value at misfolded Tau (MC1) is recorded as “significant decrease”.
